Measurements reported in paper doi:10.1101/2022.03.12.484055v1 (biorxiv, 2022).
Each block holds one compound with its values, some of them ahead of it.

Key:
Conditions in all cases: tsA201, read-out: % inhibition @ 30 µM
[1] = biological target: T1, ASIC1 (hASIC1; ASIC1a as primary isoform in tsA-201 cells) (Homo sapiens, UniProt P78348); test: cell-based
T1 sequence (P78348 1-528): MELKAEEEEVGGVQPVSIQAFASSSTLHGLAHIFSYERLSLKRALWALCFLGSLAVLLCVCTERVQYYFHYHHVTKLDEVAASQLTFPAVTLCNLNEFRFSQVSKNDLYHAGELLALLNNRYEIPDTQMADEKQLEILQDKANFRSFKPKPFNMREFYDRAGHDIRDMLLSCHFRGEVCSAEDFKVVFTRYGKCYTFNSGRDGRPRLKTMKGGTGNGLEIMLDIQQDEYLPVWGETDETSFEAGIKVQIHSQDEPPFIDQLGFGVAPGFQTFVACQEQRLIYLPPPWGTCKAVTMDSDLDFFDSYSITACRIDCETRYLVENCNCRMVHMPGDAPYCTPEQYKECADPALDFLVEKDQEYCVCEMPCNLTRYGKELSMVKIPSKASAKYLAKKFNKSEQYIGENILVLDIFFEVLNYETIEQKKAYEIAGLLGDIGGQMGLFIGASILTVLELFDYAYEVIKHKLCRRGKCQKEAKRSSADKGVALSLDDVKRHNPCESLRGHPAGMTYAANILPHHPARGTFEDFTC

[2] = biological target: T1, ASIC1 (hASIC1; ASIC1a as primary isoform in tsA-201 cells); test: cell-based; remark: listed apart in the source
[3] = biological target: T1, ASIC1 (hASIC1; ASIC1a as primary isoform in tsA-201 cells); test: automated patch clamp, single concentration; format: cell-based
[4] = biological target: T1, ASIC1 (hASIC1; ASIC1a as primary isoform in tsA-201 cells); test: cell-based; remark: listed apart in the source
[5] = biological target: T1, ASIC1 (hASIC1; ASIC1a as primary isoform in tsA-201 cells); test: cell-based; remark: listed apart in the source

inhibition at 30 µM [1]: 37%
Structure (SMILES): CC(C)c1ccc(C(=O)NC(=N)N)cc1S(C)(=O)=O [compound 95, 95]

inhibition at 30 µM [1]: 95%
Structure (SMILES): N=C(N)NC(=O)c1nc(I)c(N)nc1N [compound 97]

inhibition at 30 µM [1]: 81%
Structure (SMILES): N=C(N)NC(=O)c1nc(Cl)c(NCCP(=O)(O)O)nc1N [compound 90, 90]

inhibition at 30 µM [2]: 75%
Structure (SMILES): N=C(N)NC(=O)c1nc(Cl)c(N2CCOCC2)nc1N [compound 80, 80]

inhibition at 30 µM [3]: 76 ± 3%
Structure (SMILES): N=C(N)NC(=O)c1nc(-c2cc3cc(F)cc(F)c3o2)c(N)nc1N [compound 35, 35]

inhibition at 30 µM [4]: 39%
Structure (SMILES): N=C(N)NC(=O)c1nc(-c2cc3ccccc3o2)c(NCc2ccccc2)nc1N [compound 65, 65]

inhibition at 30 µM [5]: 8%
Structure (SMILES): Nc1noc(-c2nc(-c3cc4ccccc4o3)c(N3CCCCCC3)nc2N)n1 [compound 71, 71]

inhibition at 30 µM [2]: 67%
Structure (SMILES): N=C(N)NC(=O)c1nc(Cl)c(N2CCCOCC2)nc1N [compound 83, 83]

inhibition at 30 µM [5]: 15%
Structure (SMILES): Nc1nnc(-c2nc(-c3cc4ccccc4o3)c(N3CCCCCC3)nc2N)[nH]1 [compound 70, 70]

inhibition at 30 µM [1]: 22%
Structure (SMILES): N=C(N)NC(=O)c1ccccn1 [compound 93, 93]

inhibition at 30 µM [5]: 6%
Structure (SMILES): N=C(N)NC(=O)c1nc(-c2cnc(N)nc2)c(N2CCCCCC2)nc1N [compound 73, 73]

inhibition at 30 µM [2]: 14%
Structure (SMILES): N=C(N)NC(=O)c1nc(-c2cncnc2)c(N2CCCOCC2)nc1N [compound 84, 84]

inhibition at 30 µM [4]: 59%
Structure (SMILES): N=C(N)NC(=O)c1nc(-c2cc3ccccc3o2)c(N2CCCC2)nc1N [compound 59, 59]

inhibition at 30 µM [5]: 31%
Structure (SMILES): CN(C)CCC(=O)c1nc(-c2cc3ccccc3o2)c(N2CCCCCC2)nc1N [compound 72, 72]

inhibition at 30 µM [2]: 26%
Structure (SMILES): N=C(N)NC(=O)c1nc(-c2cc3ccccc3o2)c(N2CCCOCC2)nc1N [compound 86, 86]

inhibition at 30 µM [3]: 75 ± 1%
Structure (SMILES): N=C(N)NC(=O)c1nc(-c2ccco2)c(N)nc1N [compound 14, 14]

inhibition at 30 µM [3]: 71 ± 2%
Structure (SMILES): CC(C)(C)c1ccc2oc(-c3nc(C(=O)NC(=N)N)c(N)nc3N)cc2c1 [compound 21, 21]

inhibition at 30 µM [1]: 91%
Structure (SMILES): N=C(N)NC(=O)c1nc(Cl)c(NCCc2ccccc2)nc1N [compound 88]

inhibition at 30 µM [4]: 54%
Structure (SMILES): N=C(N)NC(=O)c1nc(-c2cc3ccccc3o2)c(N2CCCCC2)nc1N [compound 60, 60]

inhibition at 30 µM [4]: 31%
Structure (SMILES): N=C(N)NC(=O)c1nc(-c2cc3ccccc3o2)c(NCCc2ccccc2)nc1N [compound 66, 66]

inhibition at 30 µM [4]: 10%
Structure (SMILES): N=C(N)NC(=O)c1nc(-c2cc3ccccc3o2)c(NC2CCCCCC2)nc1N [compound 64, 64]

inhibition at 30 µM [4]: 22%
Structure (SMILES): N=C(N)NC(=O)c1nc(-c2cc3ccccc3o2)c(NC2CCCC2)nc1N [compound 63, 63]

inhibition at 30 µM [1]: 79%
Structure (SMILES): Cc1ccc(S(=O)(=O)NCCNc2nc(N)c(C(=O)NC(=N)N)nc2Cl)cc1 [compound 91]

inhibition at 30 µM [5]: 6%
Structure (SMILES): Nc1nc(N2CCCCCC2)c(-c2cc3ccccc3o2)nc1C(=O)O [compound 68, 68]

inhibition at 30 µM [5]: 9%
Structure (SMILES): COC(=O)c1nc(-c2cc3ccccc3o2)c(N2CCCCCC2)nc1N [compound 67, 67]

inhibition at 30 µM [5]: 11%
Structure (SMILES): CC(C)Nc1ncc(-c2nc(C(=O)NC(=N)N)c(N)nc2N2CCCCCC2)cn1 [compound 75, 75]

inhibition at 30 µM [3]: 82 ± 1%
Structure (SMILES): N=C(N)NC(=O)c1nc(-c2cc3cc(F)ccc3o2)c(N)nc1N [compound 23, 23]

inhibition at 30 µM [5]: 27%
Structure (SMILES): CNc1ncc(-c2nc(C(=O)NC(=N)N)c(N)nc2N2CCCCCC2)cn1 [compound 74, 74]

inhibition at 30 µM [2]: 8%
Structure (SMILES): COc1ncc(-c2nc(C(=O)NC(=N)N)c(N)nc2N2CCCOCC2)cn1 [compound 85, 85]

inhibition at 30 µM [5]: 6%
Structure (SMILES): N=C(N)NC(=O)c1nc(-c2cnc(NCCO)nc2)c(N2CCCCCC2)nc1N [compound 76, 76]

inhibition at 30 µM [1]: 22%
Structure (SMILES): N=C(N)NC(=O)c1ccccc1 [compound 92, 92]

inhibition at 30 µM [1]: 80%
Structure (SMILES): N#CCCNc1nc(N)c(C(=O)NC(=N)N)nc1Cl [compound 89]

inhibition at 30 µM [4]: 46%
Structure (SMILES): CCN(c1nc(N)c(C(=O)NC(=N)N)nc1-c1cc2ccccc2o1)C(C)C [compound 62, 62]

inhibition at 30 µM [1]: 90%
Structure (SMILES): N=C(N)NC(=O)c1nc(Cl)c(NCc2ccccc2)nc1N [compound 87]

inhibition at 30 µM [5]: 10%
Structure (SMILES): CN(C)C(=O)c1nc(-c2cc3ccccc3o2)c(N2CCCCCC2)nc1N [compound 69, 69]

inhibition at 30 µM [2]: 65%
Structure (SMILES): N=C(N)NC(=O)c1nc(-c2ccc(C(F)(F)F)cc2)c(C2CC2)nc1N [compound 79, 79]

inhibition at 30 µM [1]: 94%
Structure (SMILES): N=C(NC(=O)c1nc(Cl)c(N)nc1N)Nc1ccccc1 [compound 96, 96]

inhibition at 30 µM [3]: 82 ± 1%
Structure (SMILES): COc1ccc2oc(-c3nc(C(=O)NC(=N)N)c(N)nc3N)cc2c1 [compound 29, 29]

inhibition at 30 µM [2]: 78%
Structure (SMILES): N=C(N)NC(=O)c1nc(-c2ccc(C(F)(F)F)cc2)c(N2CCCC2)nc1N [compound 78, 78]
